According to PMC9765439, “Systems-Wide Dissection of Organic Acid Assimilation in Pseudomonas aeruginosa Reveals a Novel Path To Underground Metabolism” (mBio, 2022):

How the values were obtained:
[1] = target: T1, GltAPa (citrate synthase) (Pseudomonas aeruginosa, UniProt P14165); experiment: DTNB (TNB release) spectrophotometric assay, […] nm; format: biochemical; details: 0.5 mM oxaloacetate; 50 mM HEPES pH 7.5, 0.1 M KCl, 0.54 M glycerol; 37 °C
T1 construct: gene gltA; full-length ORF, 429 aa; pET-19m, N-terminal TEV-cleavable His6 tag, cut; E. coli host; hexamer in asymmetric unit
T1 sequence (P14165 1-428): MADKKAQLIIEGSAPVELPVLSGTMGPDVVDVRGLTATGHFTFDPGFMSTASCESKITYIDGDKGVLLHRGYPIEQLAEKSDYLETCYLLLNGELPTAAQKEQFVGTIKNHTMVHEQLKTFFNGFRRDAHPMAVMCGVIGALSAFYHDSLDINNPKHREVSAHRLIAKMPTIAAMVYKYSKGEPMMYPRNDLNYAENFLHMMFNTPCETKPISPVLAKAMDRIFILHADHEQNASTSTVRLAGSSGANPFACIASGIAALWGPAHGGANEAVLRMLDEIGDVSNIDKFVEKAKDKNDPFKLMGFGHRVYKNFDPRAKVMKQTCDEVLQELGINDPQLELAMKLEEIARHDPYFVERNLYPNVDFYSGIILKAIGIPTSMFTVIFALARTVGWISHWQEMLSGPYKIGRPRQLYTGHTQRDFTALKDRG

[2] = target: T2, PrpCPa (2-methylcitrate synthase, 2-MCS) (Pseudomonas aeruginosa, UniProt Q9I5E3); experiment: X-ray crystallography; format: binding; details: 2.5 mM oxaloacetate in crystallisation, Bis-Tris pH 5.5; active site of chain D only
T2 construct: gene prpC; pET-19m, N-terminal TEV-cleavable His6 tag, cut; E. coli host; homodimer
T2 sequence (Q9I5E3 1-375): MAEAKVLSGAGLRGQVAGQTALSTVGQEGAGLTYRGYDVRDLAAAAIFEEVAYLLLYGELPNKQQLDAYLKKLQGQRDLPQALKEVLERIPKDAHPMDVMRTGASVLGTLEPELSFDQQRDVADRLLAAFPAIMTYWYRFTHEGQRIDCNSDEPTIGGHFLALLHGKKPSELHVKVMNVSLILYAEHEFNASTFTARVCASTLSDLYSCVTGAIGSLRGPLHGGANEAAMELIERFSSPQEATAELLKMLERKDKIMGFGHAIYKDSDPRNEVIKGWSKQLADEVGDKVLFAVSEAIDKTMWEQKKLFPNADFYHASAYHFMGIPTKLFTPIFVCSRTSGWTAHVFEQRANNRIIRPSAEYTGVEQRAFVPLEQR

## CC(=O)SCCNC(=O)CCNC(=O)[C@H](O)C(C)(C)COP(=O)(O)OP(=O)(O)OC[C@H]1O[C@@H](n2cnc3c(N)ncnc32)[C@H](O)[C@@H]1OP(=O)(O)O [acetyl-CoA]
[1]
  DTNB (TNB release) spectrophotometric assay, 412 nm: Purified GltAPa is a citrate synthase with no detectable 2-methylcitrate synthase activity.

## O=C(O)CC(=O)C(=O)O [oxaloacetate]
[2]
  X-ray crystallography: Crystal structure of oxaloacetate-bound PrpCPa represented in cartoon (PDB: 6S87).
